Patent US11235022B2, “Methods of diagnosis, selection, and treatment of diseases and conditions caused by or associated with methanogens” (Cedars-Sinai Medical Center, priority 2013, dated 2022)

Assays:
[1] = system: small bowel motility / small intestinal transit; details: cited from earlier work
[2] = Example 4A: glucose tolerance test and cholesterol before and after antibiotic in single patients; format: in vivo, human
Procedure: After an administration of rifaximin at 550 mg, three times a day, the peak glucose was 161 mg/dL. Cholesterol for the same patient was 200 and then 171 after treatment. […] After an administration of neomycin at 500 mg, twice daily, the peak glucose was 121. Cholesterol was 202 before the treatment and was down to 178 after treatment.

[3] = system: methane on breath testing; constipation symptoms; details: retrospective study; 10 days; cited from earlier work
[4] = system: methane producers with constipation predominant IBS; details: placebo 5.0±5.1%; cited from earlier work

Compound	reduction of proximal small bowel motility (average) ([1]; 5 dogs, methane infused through mid-small bowel fistula) [%]	slowing of small intestinal transit ([1]; in vivo animal study, infusion of methane into the small intestine) [%]	cholesterol after treatment ([2]; Patient 1, rifaximin 550 mg three times a day, 200 before)	peak glucose on glucose tolerance test after treatment ([2]; Patient 1, rifaximin 550 mg three times a day, 260 before antibiotics) [mg/dL]	reduction in constipation symptoms [3] [%]	reduction in methane [3] [%]	peak glucose on glucose tolerance test after treatment ([2]; Patient 2, neomycin 500 mg twice daily, 154 before antibiotics)	cholesterol after treatment ([2]; Patient 2, neomycin 500 mg twice daily, 202 before)	improvement in constipation [4] [%]
C [methane]	59	59							
CO[C@H]1/C=C/O[C@@]2(C)Oc3c(C)c(O)c4c(O)c(c5c(nc6cc(C)ccn65)c4c3C2=O)NC(=O)/C(C)=C\C=C\[C@H](C)[C@H](O)[C@@H](C)[C@@H](O)[C@@H](C)[C@H](OC(C)=O)[C@@H]1C [rifaximin]			171	161	56	28			
neomycin					63	33	121	178	44.0±12.3
